Source: paper PMC7504466, “In-Vitro and In-Silico Evaluations of Heterocyclic-Containing Diarylpentanoids as Bcl-2 Inhibitors Against LoVo Colorectal Cancer Cells” (Molecules, 2020)

Assays:
RKO cells = experiment: MTT cytotoxicity assay, RKO cells; format: cell-based; details: Homo sapiens, 72 h post-treatment, read-out: IC50 (µM) BRAF RKO
Description: (§1) The in-vitro cytotoxic activity of the synthesized compounds on seven human CRC cell lines including KRAS (T84, SW620, LoVo) and BRAF (HT29, NCI-H508, RKO and LS411N) mutated cells were determined by MTT assay as previously described. The IC50 values obtained are summarized in Table 2 in which 5-FU and normal human dermal fibroblasts (NHDF) were used as controls. Meanwhile, a heatmap (Figure 3) was also generated using GraphPad Prism v7.0 (GraphPad Software, La Jolla, CA, USA) to visualize the cytotoxic trends of synthesized compounds graphically.
(§2) A panel of KRAS (T84, SW620 and LoVo) and BRAF (HT29, NCI-H508, RKO and LS411N) mutated human CRC cell lines were grown in Dulbecco’s modified Eagle’s medium (DMEM) containing 10% fetal bovine serum (FBS) and 1% penicillin/streptomycin at 37 °C under 5% CO2 while NHDF cells were cultured in DMEM with 5% FBS under the same condition. The culture medium was replenished every two days until the cells reached 80–90% confluency for further usage. All cell lines (T84, ATCC®CCL-248™; SW620, ATCC®CCL-227™; LoVo, ATCC®CCL-229™; HT-29, ATCC®HTB-38; NCI-H508, ATCC®CCL-253™; RKO, ATCC®CRL-2577; LS411N, ATCC®CRL-2159; NHDF, ATCC® PCS-201-010™) were purchased from American Type culture Collections (ATCC, Manassas, VA, USA).
(§3) LoVo cells (1.5–5 × 10^3 cells/well) were seeded into a 96 well plate and incubated at 37 °C and 5% CO2 atmosphere for 24 h. On the following day, the cell media were replaced with 100 µL of test compounds at various concentration. The final concentration of DMSO in the well is 0.1%. After 72 h of incubation, culture medium was removed and 100 µL of MTT (thiazoyl blue tertrazolium bromide) solution (0.5 mg/mL in culture media) was added. The resultant plates were then further incubated at 37 °C for 4 h. Upon completion, the MTT solution was removed and the formazan salts formed were dissolved in 100 µL of DMSO. The absorbance was recorded with a microplate reader at 570 nm. The IC50 values of tested compounds were calculated from three independent experiments.

LoVo cells = experiment: Colony formation assay; format: cell-based, human; details: 0.625-5 µM, 7 days post-treatment
Description: LoVo cells (1 × 10^3 cells/well) were seeded into a 6-well plate and incubated at 37 °C and 5% CO2 atmosphere overnight. After incubation, the culture media were replaced with 3 mL of test compounds at various concentration and further incubated for seven days. Upon completion, cells were washed with PBS and fixed with 4% paraformaldehyde for 15 min followed by cell staining with 0.5% (w/v) crystal violet for 20 min. The resultant plates were then washed with tap water and dried at room temperature. Upon drying, the plate image was photographed.

T84 cells = experiment: MTT cytotoxicity assay, T84 cells; format: cell-based; details: Homo sapiens, 72 h post-treatment, read-out: IC50 (µM) KRAS T84
Description: as §1, §2, §3

For O=C1C(=Cc2ccccc2Br)CSCC1=Cc1ccccc1Br [Compound 2e, 3,5-Bis(2-bromobenzylidene)tetrahydro-4H-thiopyran-4-one], the IC50 (RKO cells) was 1.2 µM, the “colony formation of LoVo cells” value (LoVo cells) was “inhibit the colony formation of LoVo cells in a dose-dependent manner” and the IC50 (T84 cells) was 1.6 µM.
